Patent US20260365633A1, “Novel PEM Structures for SBX” (Roche Sequencing Solutions, Inc., priority 2023, published 2026)

Target: T1, C4760 DNA polymerase (a variant of DPO4) (Saccharolobus solfataricus, UniProt Q97W02, A155G/A42V/D156R/D292Y/D294N/E291S/E324K/E325K/E327K/E63R/E79L/G187P/G299W/I153V/I189F/I248T/I295S/K152A/K317Q/K321Q/K56Y/K78D/L293W/M76W/N188Y/P184Q/Q82W/Q83G/R300S/S297Y/S86E/T290K/T301W/V289W/V296Q)
T1 construct: Eco or Kod SSB in reaction as additive
T1 sequence (Q97W02 1-340 A155G/A42V/D156R/D292Y/D294N/E291S/E324K/E325K/E327K/E63R/E79L/G187P/G299W/I153V/I189F/I248T/I295S/K152A/K317Q/K321Q/K56Y/K78D/L293W/M76W/N188Y/P184Q/Q82W/Q83G/R300S/S297Y/S86E/T290K/T301W/V289W/V296Q): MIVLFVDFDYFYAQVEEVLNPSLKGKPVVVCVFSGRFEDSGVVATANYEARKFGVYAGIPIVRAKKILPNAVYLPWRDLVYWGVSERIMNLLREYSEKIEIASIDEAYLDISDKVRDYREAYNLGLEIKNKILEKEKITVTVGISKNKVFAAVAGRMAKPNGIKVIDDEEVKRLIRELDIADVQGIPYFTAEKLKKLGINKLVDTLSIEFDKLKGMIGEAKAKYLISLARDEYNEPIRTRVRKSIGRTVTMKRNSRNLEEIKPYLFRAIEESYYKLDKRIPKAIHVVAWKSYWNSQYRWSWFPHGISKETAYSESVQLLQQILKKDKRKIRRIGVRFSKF
Assay: Primer extension on 411mer amplicon template with C4760 polymerase, gel
Assay type: biochemical, Sulfolobus solfataricus
Protocol: PEM activity of compound 15 was tested in primer extension assays using a 411mer amplicon template. Primer extension reactions included the following reagents: 50 Mm TrisCl, 200 Mm NH40ac, 20% PEG8K, 5% NMS, 3 nmol PP-60.20, 2 Mm MnCl2, 2 μg Kod single-strand binding protein (SSB), 1 M urea, 250 pmol each XNTP, 1 pmol template, 1 pmol [COMPOUND LEFT OUT] primer, 1.2 μg purified recombinant C4760 DNA polymerase (a variant of DPO4, see SEQ ID NO: 2), and 2 (lane 2) or 3 (lane 3) Mm PEM. 10 μL primer extension reactions were run for 20 minutes at 37 °C and reaction products were analyzed by gel electrophoresis. A representative gel showing primer extension products is presented in FIG. 12 (the position of a 277mer is indicated by the arrow). […] Remarkably, the polymerase is completely dependent upon the addition of PEM to the reaction in order to be capable of synthesizing these lengthy Xpandomer products. Even longer extension products may be obtained by optimizing various reaction parameters, e.g., extension time and/or concentrations of various additives.
PEM activity of compound 19, was tested in primer extension assays using the 411mer amplicon template. […] 10 μL primer extension reactions were run for 30 minutes at 37 °C and reaction products were analyzed by gel electrophoresis. […]

Compound	XNTP polymerization relative to compound 14 (2 or 3 Mm PEM, 20 minutes at 37 °C, FIG. 12)	XNTP polymerization relative to compound 14 (0.5, 1, or 1.5 Mm PEM, 30 minutes at 37 °C, FIG. 14)
CCOC(=O)c1cc(-c2cn(-c3ccc(O)c(C(=O)O)c3)nn2)nc(-c2cn(-c3ccc(O)c(C(=O)O)c3)nn2)c1 [Compound 15, 5,5′-((4-(ethoxycarbonyl)pyridine-2,6-diyl)bis(1H-1,2,3-triazole-4,1-diyl))bis(2-hydroxybenzoic acid)]	comparable to that of compound 14	–
NC(=O)c1cc(-c2cn(-c3ccc(C(=O)O)c(O)c3)nn2)nc(-c2cn(-c3ccc(C(=O)O)c(O)c3)nn2)c1 [Compound 19, 4,4′-((4-carbamoylpyridine-2,6-diyl)bis(1H-1,2,3-triazole-4,1-diyl))bis(2-hydroxybenzoic acid)]	–	less efficient than that of compound 14
